Key:
[1] = system: C57B1/6 mice
Procedure: Cardiac injury. Myocardial injury is cryogenically initiated, employing a technique adapted from Taylor et al. (1998) (ref 28). Adult MRL and C57B1/6 mice (6-8 weeks of age) were anaesthetized using an intraperitoneal injection of ketamine (100 mg/kg) and xylazine (15 mg/kg). A 2 mm diameter blunt probe cooled to the temperature of liquid Nitrogen is then introduced, trans-diaphragmatically, to the right ventricular surface of the heart.
Access to the diaphragm was accomplished by a 6-8 mm incision made through the skin on the ventral surface of the abdomen below the ribcage approximately 5 mm posterior to—and approximately 5 mm to the left of the ventral midline—the sternum. The underlying musculature was incised to an equivalent extent. The diaphragm was exposed using forceps to retract the medial lobe of the liver. The right ventricular surface of the heart was thus presented directly adjacent to, and clearly visible through, the diaphragm. Injury to the heart was achieved by holding the cryoprobe in contact with the diaphragmatic surface for 10 seconds and repeated using a second, identical cryoprobe. The abdominal musculature was then repositioned and closed using 6-0 […] suture. The 6-0 nylon suture was also used for skin closure.
Histology Frozen sections: Hearts were removed and frozen in isopentane cooled to −160° C. in liquid nitrogen. Eight micron-thick sections were cut for immunohistochemistry and histology. Fixed sections: Hearts were fixed in Prefer Fixative (Anatheh Ltd.). Paraffin-embedded sections cut to a thickness of 5 microns were used for both histology and immunohistochemistry.
We also treated nonhealer C57B1/6 mice with PTU, which is known to inhibit thyroid activity.

[2] = system: B6 mouse; details: 15 days after PTU treatment
[3] = system: MRL mice; assay: Cryo-injury of the heart in MRL (healer) mice given slow-release T3 pellets; format: in vivo, mouse; details: pellets containing 0.01 mg T3, slow release (21 days), 0.0005 mg/day, injured one day later
Procedure: The underlying musculature was incised to an equivalent extent.
To determine whether administering T3 to MRL mice inhibits healing of ear and heart wounds, we placed pellets containing 0.01 mg of T3 in a slow release formulation (21 days) in MRL mice. Via these pellets, the mice received 0.0005 mg/day of T3 . Mice were injured one day later.

[4] = wounded C57B1/6 mice pretreated with PTU

| SMILES | Heart wound healing and epithelial growth at larger concentrations ([1]; C57B1/6 mice, PTU 2 or 3 mg/day) | Epithelial layer versus untreated C57B1/6 mice [1, 4] | Growth of myocardium versus untreated C57B1/6 mice [1, 4] | Ear hole size versus untreated B6 ear holes [2] | Proliferation in ear hole wound [2] | Healing of heart wound [3] | Heart wound scarring / fibrotic tissue ([3]; by day 15) |
| --- | --- | --- | --- | --- | --- | --- | --- |
| CCCc1cc(=O)[nH]c(=S)[nH]1 [PTU, propylthiouracil] | better healing and greater epithelial growth | more intact epithelial layer | significantly greater growth of myocardium | smaller | impressive degree of epithelial proliferation, as well as muscle and adipocyte proliferation |  |  |
| N[C@@H](Cc1cc(I)c(Oc2ccc(O)c(I)c2)c(I)c1)C(=O)O [T3] |  |  |  |  |  | never healed | severely scarred, with a large degree of fibrotic tissue |

— US6852706B1, “Methods and compositions for healing heart wounds” (The Wistar Institute, priority 2000, dated 2005)
